Laboratory results published in patent publication US20160184274A1, “Methods for inhibiting mesenchymal phenotype after epithelial-to-mesenchymal transition” (Fibrostatin, S.L., priority 2014, published 2016).

Key:
[1] = system: A549 tumors displaying mesenchymal phenotype; test: A549 xenograft, tumors with mesenchymal phenotype; format: in vivo; conditions: T12 20 mg/kg/day in drinking water; athymic mice; FIG. 10A
Source text: FIG. 10. […] Control, n=43; T12, n=18.

[2] = target: T1, trimeric intracellular GPBP (Homo sapiens, UniProt Q9Y5P4); test: In vitro phosphorylation assay with trimeric intracellular GPBP; format: biochemical; conditions: T12 50 μM; autophosphorylation, γ[32P]ATP; FIG. 2
T1 construct: made in house; host or cells: Sf9 insect cells (baculovirus), purified from cell lysates
T1 sequence (Q9Y5P4 1-624): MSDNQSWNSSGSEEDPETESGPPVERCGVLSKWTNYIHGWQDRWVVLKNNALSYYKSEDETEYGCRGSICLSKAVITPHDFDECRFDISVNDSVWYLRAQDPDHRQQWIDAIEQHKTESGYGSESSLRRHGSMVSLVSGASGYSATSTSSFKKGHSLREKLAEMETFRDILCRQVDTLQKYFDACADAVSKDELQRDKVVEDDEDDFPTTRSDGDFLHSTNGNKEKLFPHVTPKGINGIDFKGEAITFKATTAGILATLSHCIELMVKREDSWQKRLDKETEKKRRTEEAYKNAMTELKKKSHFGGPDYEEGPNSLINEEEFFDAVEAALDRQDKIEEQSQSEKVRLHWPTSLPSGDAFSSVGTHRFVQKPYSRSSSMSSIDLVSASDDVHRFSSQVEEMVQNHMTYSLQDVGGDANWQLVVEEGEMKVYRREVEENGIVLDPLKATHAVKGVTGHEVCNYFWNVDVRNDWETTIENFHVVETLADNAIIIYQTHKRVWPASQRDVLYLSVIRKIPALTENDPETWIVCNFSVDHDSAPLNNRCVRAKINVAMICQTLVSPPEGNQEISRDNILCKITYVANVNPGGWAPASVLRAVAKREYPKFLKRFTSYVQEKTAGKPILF
Procedure: FIG. 2. […] Multimeric extracellular and trimeric intracellular GPBP were purified by affinity chromatography and subsequent gel filtration chromatography, and used for in vitro phosphorylation assays in absence (−) or presence (+) of T12 (50 μM). Reactions were subjected to SDS-PAGE, Western blot onto PVDF membrane and autoradiography, and further protein detected with anti-FLAG primary antibodies. Autoradiography and anti-FLAG® bands were quantified with WCIF IMAGEJ® software, and the normalized kinase activity estimated. Shown are normalized kinase activities. […] Samples were analyzed in triplicate and the data represents the Mean (±SEM) of three independent assays.
FLAG®-tagged GPBP was expressed using Bac-to-Bac® Baculovirus Expression System. […] Finally, purified protein was quantified with Bio-Rad Protein Assay and stored at −20° C. […]
Typically, about 270 ng of purified FLAG®-GPBP protein, either extracellular multimer or intracellular trimer, were incubated in presence or absence of T12 […] in a kinase assay buffer containing 25 mM disodium β-glycerophosphate, 8 mM MgCl2, 0.5 mM EDTA, 0.5 mM EGTA, 1 mM DTT, 5 mM MnCl2 during 10 min at 37° C. […] Then reactions were stopped with SDS-PAGE loading buffer and heat (95° C., 3 min) and analyzed by SDS-PAGE, electro-transference to PVDF membrane (Merck Millipore) and autoradiography. […]

normalized kinase activity of GPBP [2]: not intracellular GPBP trimers
SMILES: COc1ccc(-c2ccc(-c3cccc(C)c3)c(C)c2)c(CCC(=O)O)c1 [T12, 3-[4″-methoxy-3,2′-dimethyl-(1,1′;4′,1″)terphenyl-2″-yl] propionic acid]
tumor growth (relative tumor volume) [1]: very effective slowing the growth
